# Assay results from patent US12123881B2, “Rap1-Gtp, Rac1-GTP and FMS-like tyrosine kinase 3 ligand (FLT3-L) as biomarkers for early detection of sepsis” (UNM Rainforest Innovations, priority 2018, dated 2024).
# B1: Flt-3L: hematopoietic four helical bundle cytokine, Fms-like tyrosine kinase-3 ligand (protein, UniProt P49771 27-235, looked up)
# Fms-related tyrosine kinase 3 …: TQDCSFQHSPISSDFAVKIRELSDYLLQDYPVTVASNLQDEELCGGLWRLVLAQRWMERLKTVAGSKMQGLLERVNTEIHFVTKCAFQPPPSCLRFVQTNISRLLQETSEQLVALKPWITRQNFSRCLELQCQPDSSTLPPPWSPRPLEATAPTAPQPPLLLLLLLPVGLLLLAAAWCLHWQRTRRRTPRPGEQVPPVPSPQDLLLVEH
# Assays:
# Haemophilus influenzae = experiment: Clinical course of Patient #10 under antibiotic treatment, tracked by GTPase assay; format: in vivo, human
# Text: FIG. 4 G-Trap data readout, showing: A. Histograms of Cyto-Plex™ beads coded with discrete levels of 700 nm fluorescence beads for target GTPases. B&C. Flow cytometry histograms associated with GTPase activity in cell lysates exposed to blood plasma drawn from Patient #10 shown in FIG. 4D on day 0 (pre-infection) and 11 (post infection). D. Quantitative analysis of GTP binding to cytoplex beads in cell lysates treated with plasma drawn from Patient #10: a person was admitted after being crushed by a car. On day 2 a bacterial infection was suspected, thus a sputum culture was ordered and the patient was treated with broad-spectrum antibiotics including vancomycin and piperacillin/tazobactam. […] Patient's blood pressure trended upwards. On day 7, sputum-culture sent on day #2 was determined to be positive for Haemophilus influenzae and antibiotics were changed to 3 days of ceftriaxone (days 7-9). […] The onset of infection was sensitively detected by an increase in GTP binding to Rap1 and Rac1. […] E. Quantitative analysis of GTPase activity induced by Patient #3 plasma (see FIG. 2A-C). F. Quantitative analysis of GTPase activity induced by Patient #13 plasma. […] G Quantitative analysis of GTPase activity induced by Patient #14 plasma; a person admitted with no injuries after a low-speed car collision. […]
# ChemR23 = molecular target: T1, ChemR23 (Homo sapiens, UniProt Q99788); experiment: G-Trap measurement of Rac1-GTP in cells challenged with Patient #10's plasma, with the ChemR23 antagonist; format: cell-based; conditions: Patient #10 plasma
# T1 construct: endogenous in cells
# T1 sequence (Q99788 1-373): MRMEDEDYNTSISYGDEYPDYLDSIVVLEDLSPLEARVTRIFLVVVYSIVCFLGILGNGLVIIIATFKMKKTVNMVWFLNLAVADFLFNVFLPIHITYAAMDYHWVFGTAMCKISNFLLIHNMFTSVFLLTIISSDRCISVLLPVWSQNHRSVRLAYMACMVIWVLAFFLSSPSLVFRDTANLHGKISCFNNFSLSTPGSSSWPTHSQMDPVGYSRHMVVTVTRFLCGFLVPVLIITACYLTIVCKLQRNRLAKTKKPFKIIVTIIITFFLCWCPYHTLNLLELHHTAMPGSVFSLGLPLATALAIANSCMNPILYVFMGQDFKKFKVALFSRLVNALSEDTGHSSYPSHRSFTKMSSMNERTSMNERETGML
# Text: As shown in FIGS. 2-4, the inventors use flow cytometry multiplex beads that are functionalized with signaling effector molecules of target GTP bound small GTPases to determine changes in the concentration of active GTPases in the blood plasma of trauma patients before and after a clinically diagnosed infection (FIGS. 6&7). In this setting, the beads capture GTP-bound GTPases in lysates of cells that were challenged with plasma samples of study subjects and then quantitatively analyzed on a flow cytometer.^9
# Pilot study Proteomic of Patient #10 and #14 plasma samples. Laser densitometer readings of duplicate patient plasma samples (#10, and #14) were computer analyzed for differential expression of proteins as previously described. Spot data showing significant differences between patient samples and controls were determined from adjusted p-values using FDR (and Bonferroni) analysis as previously described. Ten spots were selected for mass spectrometry analysis. The selection was based on the magnitude of change in expression as well as positive correlation to trends in GTPase activity. Preliminary validation assay were performed Spot #130-CPN for patient 10 and Spot #102; Angiotensinogen for Patient 14, because of their overt connection to GTPase activity profile and the immediate availability of assay tools to confirm their presence. The value proposition of the invention as a clinical decision support tool is illustrated in FIG. 6. FIG. 6A panels show the patient's vital signs, which are indeterminate. The illness history of Patient 10 is summarized in example Case #2 above caption and recapitulated in FIG. 6B. […] The rationale for testing CPN in secondary assays was based on the following. CPN is a metallocarboxypeptidase that regulates complement anaphylatoxins (C3a, C4a, and C5a). [2; 3; 4] For clarity, the expression of carboxypeptidase N (CPN) are superimposed over changes in GTP binding to Rac1 and Rap1 (FIG. 6C) for days 8-11. […] We reasoned that the plasma upregulation of CPN was due to Haemophilus influenzae associated LPS. […] [6; 7; 8] […] [5]
# ChemR23 (CMKLR1) = molecular target: T2, ChemR23 (CMKLR1) (Homo sapiens, UniProt Q99788); conditions: read-out: Kd, antagonist for ChemR23; cited from earlier work
# T2 sequence (Q99788 1-373): T1 sequence (Q99788 1-373)
# Rap1 [1] = experiment: LPS induced GTP loading of Rap1, GTPase activity measured in cell lysates; format: cell-based; conditions: Vero E cells, exposed for 30 min
# Text: (§1) To establish a possible mechanistic link connecting GTPase activity, bacteria virulence factors and innate immune response to bacteria, we measured GTPase activity in cell lysates challenged cells with lipopolysaccharide (LPS) a Gram-negative bacterial endotoxin, which stimulates GTP binding to Rap1 in phagocytes and endothelial cells via CD14^18 (FIGS. 1A&B). […] Given the in vitro associations between Flt-3L and Rac1-GTP, we hypothesized that bacterial infection stimulates coordinate-increases in Flt-3L and Rap1-GTP. Furthermore, based on our data we hypothesized that LPS found in Gram negative bacteria, is likely to synergistically upregulate Rap1-GTP in tandem with Flt-3L which stimulates the upregulation of both Rap1-GTP and Rac-GTP. These findings were subsequently built-upon and extended to a retrospective study of longitudinal samples from trauma patients who developed hospital acquired infections. The human plasma samples were analyzed for 41 common inflammatory mediators using the 41plex HCYTMAG-60K-PX41 Cytokine kit, Human (Millipore, MA). In parallel, GTP loading of RhoA, Rac, and Rap1 was measured in cell lysates after their exposure to the plasma samples. […] We have previously disclosed a method of quantitative multiplex measurements of GTP binding to small GTPases. […]
# (§2) C. […] GTPase activity was measured in cell lysates after the cells were exposed to LPS or Flt-3L for 30 min.
# Rap1 [2] = experiment: Flt-3L induced GTP binding to Rap1, GTPase activity measured in cell lysates; format: cell-based; conditions: endothelial cells, exposed for 30 min
# Text: as §1, §2
# Rac1 = experiment: Flt-3L induced GTP binding to Rac1, GTPase activity measured in cell lysates; format: cell-based; conditions: cells exposed to Flt-3L
# Text: as §1
molecule,measurement,setting,value
"CO/N=C(\C(=O)N[C@@H]1C(=O)N2C(C(=O)O)=C(CSc3nc(=O)c(=O)[nH]n3C)CS[C@H]12)c1csc(N)n1 [Ceftriaxone, ceftriaxone]",treatment outcome indicated by GTPase assay,"Haemophilus influenzae; Patient #10, 3 days of treatment (days 7-9), read on day 9",failure of treatment
same,clinical outcome,"Haemophilus influenzae; Patient #10, restarted on day 14, lasted 7 days",patient recovery
C[N+](C)(C)CCC(=O)c1cccc2ccccc12.[I-] [α-NETA],inhibition of GTPase activity,ChemR23; day 6,40%
same,inhibition of GTPase activity,ChemR23; day 11,20%
same,inhibition of GTPase activity,ChemR23; day 12,25%
same,Kd,ChemR23 (CMKLR1),~6 µM
lipopolysaccharide [LPS],GTP loading of Rap1,Rap1 [1],induced GTP loading of Rap1
B1,GTP binding to Rap1,Rap1 [2],induced GTP binding to Rap1
same,GTP binding to Rac1,Rac1,elicited GTP binding to Rap1 and Rac1
